Reference: patent US10851051B2, “Compositions and methods for treating multiple myeloma” (THE BROAD INSTITUTE, INC., priority 2015, dated 2020)
Entries after “also recorded” stand apart in the source; their conditions may differ.

Tests used:
[1] = system: stroma-dependent myeloma cells (primary MM, MOLP5); test: Viability of stroma-dependent myeloma cells co-cultured with bone marrow stromal cells (imaging, 3 days); format: cell-based; details: primary MM and MOLP5, FIG. 1B-1C
Source text: (§1) BRD9647 was identified in a phenotypic screening of multiple myeloma cells as a growth inhibitor of certain stroma-dependent myeloma cells. […] FIG. 1B is a plot showing viability of multiple myeloma cell lines (primary multiple myeloma (primary MM) cells (with stroma), MOLP5 (with stroma), and MM1S (with stroma)) treated with various concentrations of BRD9647. For these experiments GFP-labeled MOLP5 and MM1S cells were co-cultured with unlabeled primary human bone marrow stromal cells in 384-well plates and exposed to increasing concentrations of BRD9647 for 3 days. At the end of this period, wells were imaged in the GFP channel with the IXMicro automated high-throughput microscope (Molecular Devices), remaining GFP positive cells were quantified using the MetaXpress software (Molecular Devices) and expressed as percentages of DMSO (vehicle) controls. Unlabeled primary MM cells were similar treated with BRD9647 but were stained with the calcein-acetoxymethyl ester dye at the end of the treatment period. The dye fluoresces green inside viable cells that contain esterase enzymes. Viable cells were imaged and quantified similar to GFP-positive myeloma cell-lines using size, shape and staining intensity to distinguish primary MM from stromal cells. […] Viable cells in these experiments after 3 days of compound exposure were measured using the Cell Titer Glo reagent (Promega).

[2] = system: ~100 cell lines from the Broad Institute CTD2 Center; test: Viability of ~100 Broad CTD2 cell lines (Cell Titer Glo, 3 days); format: cell-based; details: 3 days compound exposure, FIG. 1D
Source text: as §1

[3] = system: MOLP5 cells expressing AZIN1-WT; test: Viability of MOLP5 cells expressing wild-type AZIN1 under BRD9647; format: cell-based; details: FIG. 4D, 5A; lentiviral AZIN1-WT
Source text: MOLP5 cells sensitive to BRD9647 contained a mutation in AZIN1 (FIG. 4B). The mutation in AZIN1 was S367G. MOLP5 cells raised to be resistant to BRD9647 through serial exposures to increasing concentrations of BRD9647 over 3 months (MOLP5-R) lost the AZIN1 mutation that conferred sensitivity to BRD9647 (FIG. 4C). For experiments in FIGS. 4B and 4C, RNA was isolated from MOLP5 or MOLP5-R cells and converted into complementary DNA (cDNA). The AZIN1 polynucleotide was PCR amplified from cDNA then subject to Sanger sequencing. […] The growth of MOLP5 AZIN1-WT expressing cells in the presence of BRD9647 resembles the growth of untreated MOLP5 cells. For these experiments, lentiviral vectors (pLX_TRC304) encoding the AZIN1 open reading frame with the wild-type sequence or S367G mutant sequence and the puromycin resistance gene were transduced into MOLP5 cells which were then subjected to puromycin selection. […] A schematic of AZIN1 S367G's role in polyamine synthesis is shown at FIG. 6.

[4] = system: MOLP5 cells; test: Spermidine rescue of growth inhibition in MOLP5 cells; format: cell-based; details: MOLP5 + 10 or 100 μM spermidine, FIG. 7A
Experimental: MOLP5 cells with 100 μM spermidine (“MOLP5+100 μM Spd”), and MOLP5 cells with 10 μM spermidine (“MOLP5+10 μM Spd”), each.
Polyamines such as spermidine rescued the effects of BRD9647. FIG. 7B depicts the structure of spermidine. […] However, BRD9647 may be reactive with spermidine, as polyamines such as spermidine or spermine can directly react with BRD9647 via a benzoylation reaction (FIG. 7C) to form benzoylated polyamine products (FIG. 8 and FIG. 9).

[5] = system: MOLP5 cells; test: Gene expression profiling of treated MOLP5 cells (microarray, GSEA); format: cell-based; details: 10 μM, 6 hours
Experimental: Gene-expression analysis identified endoplasmic reticulum (ER) stress as an effect of BRD9647 in BRD9647-sensitive cells. […] For this experiment, MOLP5 cells were exposed to DMSO or 10 μM BRD9647 for 6 hours then subject to total RNA extraction using the TRIzol reagent (Thermo-Fisher). RNA was then hybridized to the Affymetrix U133 2.0 Plus oligonucleotide microarray (Affymetrix) and relative transcripts quantified following the manufacturer's protocol. Differential gene expression analysis was conducted using the Comparative Marker Selection module of GenePattern software (www.broadinstitute.org/genepattern). […] As show in FIG. 2C, Connectivity Map (CMap) analysis was conducted (www.broadinstitute.org/cmap) to compare a gene expression profile of […] with known gene expression profiles of over 5000 compounds to identify potential drugs showing a similar mechanism of action. Protein synthesis inhibitors of interest identified by the analysis are shown in boxes (FIG. 2C).

[6] = system: benzoylated lysines on proteins; test: Immunoblot for benzoylated lysines (Kbz antibody) in treated cells; format: cell-based; details: versus DMSO controls, FIG. 15
[7] = system: MOLP5 cells; test: Growth inhibition of MOLP5 cells by BRD9647 analogs; format: cell-based; details: FIG. 1E; for growth inhibition in MOLP5 cells compared with other analogs: various concentrations
Source text: BRD9647 was identified in a phenotypic screening of multiple myeloma cells as a growth inhibitor of certain stroma-dependent myeloma cells. […] FIG. 1B is a plot showing viability of multiple myeloma cell lines (primary multiple myeloma (primary MM) cells (with stroma), MOLP5 (with stroma), and MM1S (with stroma)) treated with various concentrations of BRD9647. For these experiments GFP-labeled MOLP5 and MM1S cells were co-cultured with unlabeled primary human bone marrow stromal cells in 384-well plates and exposed to increasing concentrations of BRD9647 for 3 days. At the end of this period, wells were imaged in the GFP channel with the IXMicro automated high-throughput microscope (Molecular Devices), remaining GFP positive cells were quantified using the MetaXpress software (Molecular Devices) and expressed as percentages of DMSO (vehicle) controls. Unlabeled primary MM cells were similar treated with BRD9647 but were stained with the calcein-acetoxymethyl ester dye at the end of the treatment period. The dye fluoresces green inside viable cells that contain esterase enzymes. Viable cells were imaged and quantified similar to GFP-positive myeloma cell-lines using size, shape and staining intensity to distinguish primary MM from stromal cells. FIG. 1C depicts images showing the viability of primary MM and MOLP5 myeloma cell lines that received BRD9647 treatment in the presence and absence of stromal co-culture. […] Viable cells in these experiments after 3 days of compound exposure were measured using the Cell Titer Glo reagent (Promega).
Fluoro-benzoyl analogs of BRD9647 were synthesized and used to study the structure-function relationship between BRD9647 and each compound's ability to inhibit growth in MOLP5 cells. […] The BRD9647 analogs measured were either mono-fluorinated at the para (FIG. 1F), meta (FIG. 1G), or ortho (FIG. 1H) positions of the benzoyl ring, or tri-fluorinated at both meta positions and one ortho position of the ring (FIG. 1I). […]

[8] = system: purified proteins (recombinant proteins, histones); test: Incubation of labeled compound with purified proteins (SDS-PAGE autoradiography, mass spectrometry); format: biochemical; details: FIG. 12, 13
[9] = system: BRD9647-sensitive cells; test: Tracing of radiolabeled compound in cell extracts (TRIzol, TLC, protein extract); format: cell-based; details: TRIzol or protein extract of treated cells, FIG. 10, 14
Experimental: FIG. 10 is a diagram showing results of a tracing experiment with a TRIzol treated extract of cells treated with 10 μM ^14C-BRD9647 for six hours.
In FIG. 14, the workflow and results of a ^14C-BRD9647 tracing experiment with protein extract from cells treated with ^14C-BRD9647 are shown.

COc1ccc(N(C(=O)c2ccccc2)S(=O)(=O)c2cc(OC)ccc2OC)cc1 [BRD9647]
toxicity to myeloma cells with and without stromal co-culture [1]: selectively toxic to stroma-dependent myeloma cells
viability of cell line panel [2]: inhibited stroma-dependent multiple myeloma (MM) cells, but not most cell lines
sensitivity of MOLP5 cells expressing wild-type AZIN1 [3]: wild-type AZIN1 expression in MOLP5 cells conferred resistance to BRD9647
growth inhibition in presence of excess spermidine [4]: excess spermidine rescued BRD9647 growth inhibition
gene expression signature of treated cells [5]: under ER stress or amino acid deprivation
benzoylated lysines in treated cells [6]: an increase in benzoylated lysines

COc1ccc(N(C(=O)c2ccc(F)cc2)S(=O)(=O)c2cc(OC)ccc2OC)cc1 [Compound 1]
growth inhibitory activity in MOLP5 cells compared with BRD9647 ([7]; FIG. 3): similar, if not increased efficacy to BRD9647
growth inhibition in MOLP5 cells compared with other analogs [7]: increased growth inhibition at each concentration of active over m-fluorobenzoyl (zb-179-2) or o-fluorobenzoyl analogs (zb-16-14)

COc1ccc(N(C(=O)c2cc(F)cc(F)c2F)S(=O)(=O)c2cc(OC)ccc2OC)cc1 [Compound 4]
growth inhibition in MOLP5 cells compared with other analogs [7]: all mono substituted analogs appear to inhibit growth substantially more than the tri-fluorinated analog

COc1ccc(N(C(=O)c2ccccc2)S(=O)(=O)c2cc(OC)ccc2OC)cc1 [^13C-BRD9647]
covalent binding to purified proteins [8]: identify labeled lysines

COc1ccc(N(C(=O)c2ccccc2)S(=O)(=O)c2cc(OC)ccc2OC)cc1 [^14C-BRD9647]
protein binding in treated cells [9]: suggest protein binding or modification of proteins; also recorded: tight protein binding at ˜15 kD molecular weight
covalent binding to purified proteins [8]: covalent binding of ^14C-BRD9647 with purified proteins was possible
